In ChEMBL document CHEMBL4400567, “Discovery of novel selective Janus kinase 2 (JAK2) inhibitors bearing a 1H-pyrazolo[3,4-d]pyrimidin-4-amino scaffold” (Bioorg Med Chem, 2019) one finds IC50 data, which are given here for two compounds.

Molecules are shown by their SMILES.

For assay [1], the target named is Tyrosine-protein kinase JAK1 (Homo sapiens, UniProt P23458). It counts as ADME.
For assay [2], the system named is HEL. Description: cells. It counts as functional, cell-based. The following applies: Homo sapiens, 48 h.
Description: Antiproliferative activity against human HEL cells harboring JAK2 V617F mutant measured after 48 hrs by CellTiter-Glo assay
The test system of assay [3] is THP-1. Description: cells. It is filed as ADME, cell-based. The following applies: Homo sapiens.
Description: Cytotoxicity against IL-4 induced JAK1/3 activated human THP1 cells preincubated for 1 hr followed by IL-4 induction and measured after 1 hr by CellTiter-Glo assay
The nature of assay [4]: cells. To be noted: Homo sapiens, NK92, 48 h. It is filed as ADME, cell-based.
Description: Cytotoxicity against human NK92 cells harboring JAK1/3 measured after 48 hrs by CellTiter-Glo assay
Assay [5] concerns TF-1. Description: cells. It counts as functional, cell-based. To be noted: Homo sapiens, TF-1, 48 h.
Description: Antiproliferative activity against JAK2 wild-type human TF1 cells measured after 48 hrs by CellTiter-Glo assay

Tyrosine-protein kinase JAK1, sequence (P23458 whole entry): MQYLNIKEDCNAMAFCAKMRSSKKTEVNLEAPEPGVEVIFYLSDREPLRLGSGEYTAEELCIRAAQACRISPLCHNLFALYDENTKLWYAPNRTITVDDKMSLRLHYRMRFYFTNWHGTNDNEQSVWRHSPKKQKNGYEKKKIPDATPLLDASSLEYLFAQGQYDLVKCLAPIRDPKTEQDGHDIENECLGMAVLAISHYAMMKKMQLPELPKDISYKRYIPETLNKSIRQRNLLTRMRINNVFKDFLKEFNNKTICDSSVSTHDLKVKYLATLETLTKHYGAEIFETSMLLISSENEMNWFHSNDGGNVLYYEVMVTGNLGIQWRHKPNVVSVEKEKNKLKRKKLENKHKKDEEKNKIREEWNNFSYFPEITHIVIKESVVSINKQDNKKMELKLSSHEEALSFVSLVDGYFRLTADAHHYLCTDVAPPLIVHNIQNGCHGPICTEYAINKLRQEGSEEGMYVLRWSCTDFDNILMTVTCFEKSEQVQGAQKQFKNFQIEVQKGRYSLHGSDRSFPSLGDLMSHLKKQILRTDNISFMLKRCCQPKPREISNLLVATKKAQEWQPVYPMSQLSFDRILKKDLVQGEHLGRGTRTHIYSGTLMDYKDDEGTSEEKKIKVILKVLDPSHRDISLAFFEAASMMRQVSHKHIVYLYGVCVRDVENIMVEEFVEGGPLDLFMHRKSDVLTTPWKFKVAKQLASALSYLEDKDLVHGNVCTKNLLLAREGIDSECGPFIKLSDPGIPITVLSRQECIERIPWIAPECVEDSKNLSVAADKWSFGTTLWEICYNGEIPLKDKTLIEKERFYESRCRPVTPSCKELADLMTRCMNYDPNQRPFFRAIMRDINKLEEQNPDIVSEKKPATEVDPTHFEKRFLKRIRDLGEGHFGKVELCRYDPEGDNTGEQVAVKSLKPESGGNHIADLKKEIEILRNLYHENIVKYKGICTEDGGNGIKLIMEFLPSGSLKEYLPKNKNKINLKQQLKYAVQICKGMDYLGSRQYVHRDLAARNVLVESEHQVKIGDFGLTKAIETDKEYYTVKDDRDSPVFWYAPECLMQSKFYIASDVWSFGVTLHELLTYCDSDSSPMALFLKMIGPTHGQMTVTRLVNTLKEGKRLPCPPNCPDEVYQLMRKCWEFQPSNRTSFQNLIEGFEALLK

The term IC50 denotes the concentration that gives 50% inhibition. A higher IC50 goes with a need for much substance. For the compound `C=CC(=O)N1CCCC(n2nc(-c3cc(C=O)n(C)n3)c3c(N)ncnc32)C1` (stereo not given), the IC50 in assay [1] turned out to be 0.215 µM; in assay [2], 8.2 µM; in assay [3], 28.8 µM; in assay [4] it was 23.6 µM; in assay [5], 7.1 µM.
For `C=CC(=O)N1CCC(n2nc(-c3cc(C(C)(C)O)n(C)n3)c3c(N)ncnc32)C1` (stereo not given), in that order: 0.104 µM, 4.7 µM, 18.5 µM, 22.1 µM and 2 µM.
